Test results from patent EP1650209A1, “Griseusin derivatives and their use as antitumor agents” (Oncotest GmbH, priority 2004, dated 2006).
In brackets after ≈: the same amount, converted by molar mass.

How the values were obtained:
Test in all cases: Proliferation inhibition of cancer cells (propidium iodide fluorescence)
Assay type in all cases: cell-based, human
[1] = test system: MAXF 401NL; conditions: MAXF 401NL cell line
Procedure: (§1) Using various human cancer cells in vitro, the concentrations of the test compounds (A, B, C, D, E, F), which inhibit the proliferation of cancer cells by 50% (IC50) and 70% (IC70) were determined. Specifically, each cell line of bladder cancer (BXF 1218L and T-24), glioblastoma (CNXF 498NL), colic cancer (HCT-116 and HT-29), gastric cancer (GXF 251 L), head and neck cancer (HNXF 536L), non small cell lung cancer (LXF 1121L, LXF 289L, LXF 526L, LXF 529L, LXF 629L and H-460), mammary cancer (MAXF 401NL, MCF-7, MDA-231 and MDA-468), melanoma (MEXF 276L, MEXF 394NL, MEXF 462NL, MEXF 514L and MEXF 520L), ovary cancer (OVXF 1619L, OVXF 899L and OVCAR-3), pancreatic cancer (PAXF 1657L and PANC-1), prostate cancer (22Rv1, DU-145, LNCaP and PC3M), pleuramesothelioma (PXF 1752L), renal cancer (RXF 1781 L, RXF 393NL, RXF 486L and RXF 944L), and uterine cancer (UXF 1138L) is added to a 96-well microtiter plate at a density of 3.6-11.2x10^3 cells per well in RPMI-1640 medium containing 10% fetal calf serum and 0.1% gentamicin and incubated for 24 hours. After 24 hours RPMI-1640 medium containing 10% fetal calf serum and 0.1% gentamicin, together with a test compound, is added thereto. Then, this plate is incubated at 37°C for 4 days in a humidified atmosphere of air containing 5% CO2. Thereafter, the cell culture medium with or without drug was replaced by 200 µl of an aqueous PI solution (7 µg/ml propidium iodide). Applying a freeze thaw cycle to permeabilize intact cell walls, staining of DNA was achieved, and the fluorescence of each well was measured using the Cy-tofluor 4000 microplate reader (excitation 530 nm, emission 620 nm), giving a direct relationship to the total cell number. Proliferation inhibition is expressed as test versus untreated control (T/C-value [%]). IC50 and IC70 values were determined by plotting compound concentration versus cell viability.

[2] = test system: MEXF 394NL; conditions: Melanoma, MEXF 394NL cell line
Procedure: as §1

[3] = test system: PXF 1752L; conditions: Pleuramesothelio, PXF 1752L cell line
Procedure: as §1

[4] = test system: OVXF 1619L; conditions: Ovary, OVXF 1619L cell line
Procedure: as §1

[5] = test system: HT-29; conditions: Colon, HT-29 cell line
Procedure: as §1

[6] = test system: MCF-7; conditions: Breast, MCF-7 cell line
Procedure: as §1

[7] = test system: MEXF 520L; conditions: Melanoma, MEXF 520L cell line
Procedure: as §1

[8] = test system: LNCaP; conditions: Prostate, LNCaP cell line
Procedure: as §1

[9] = test system: RXF 486L; conditions: RXF 486L cell line
Procedure: as §1

[10] = test system: UXF 1138L; conditions: UXF 1138L cell line
Procedure: as §1

[11] = test system: MDA-468; conditions: Breast, MDA-468 cell line
Procedure: as §1

[12] = test system: PANC-1; conditions: Pancreas, PANC-1 cell line
Procedure: as §1

[13] = test system: HCT-116; conditions: Colon, HCT-116 cell line
Procedure: as §1

[14] = test system: GXF 251 L
Procedure: as §1

[15] = test system: LXFA 289L; conditions: Lung, non small cell, LXFA 289L cell line
Procedure: as §1

[16] = test system: OVXF 899L; conditions: Ovary, OVXF 899L cell line
Procedure: as §1

[17] = test system: MEXF 276L; conditions: Melanoma, MEXF 276L cell line
Procedure: as §1

[18] = test system: RXF 944L; conditions: Kidney, RXF 944L cell line
Procedure: as §1

[19] = test system: CNXF 498NL; conditions: Glioblastoma, CNXF 498NL cell line
Procedure: as §1

[20] = test system: T-24; conditions: Bladder, T-24 cell line
Procedure: as §1

[21] = test system: RXF 393NL; conditions: Kidney, RXF 393NL cell line
Procedure: as §1

[22] = test system: OVCAR-3; conditions: Ovary, OVCAR-3 cell line
Procedure: as §1

[23] = test system: HNXF 536L; conditions: Head and Neck, HNXF 536L cell line
Procedure: as §1

[24] = test system: MDA-231; conditions: Breast, MDA-231 cell line
Procedure: as §1

IC50 ([1]; Breast): 0.090 µg/mL (≈ 0.225 µM) | IC50 value ([1]; 4 days): 0.09 µg/mL (≈ 0.225 µM) | IC50 [2]: 0.035 µg/mL (≈ 0.0874 µM) | IC50 [3]: 0.124 µg/mL (≈ 0.31 µM) | IC50 [4]: 0.242 µg/mL (≈ 0.604 µM) | IC50 [5]: 0.114 µg/mL (≈ 0.285 µM) | IC50 [6]: 0.138 µg/mL (≈ 0.345 µM) | IC50 [7]: 0.102 µg/mL (≈ 0.255 µM) | IC50 [8]: 0.107 µg/mL (≈ 0.267 µM) | IC50 ([9]; Kidney): 0.078 µg/mL (≈ 0.195 µM) | IC50 value ([9]; 4 days): 0.078 µg/mL (≈ 0.195 µM) | IC50 value ([10]; 4 days): 0.216 µg/mL (≈ 0.54 µM) | IC50 ([10]; Uterus): 0.216 µg/mL (≈ 0.54 µM) | IC50 [11]: 0.060 µg/mL (≈ 0.15 µM) | IC50 [12]: 0.117 µg/mL (≈ 0.292 µM) | IC50 [13]: 0.697 µg/mL (≈ 1.74 µM) | IC50 value ([14]; GXF 251L cell line, 4 days): 0.106 µg/mL (≈ 0.265 µM) | IC50 ([14]; Stomach, GXF 251 L cell line): 0.106 µg/mL (≈ 0.265 µM) | IC50 [15]: 8.770 µg/mL (≈ 21.9 µM) | IC50 [16]: 1.265 µg/mL (≈ 3.16 µM) | IC50 [17]: 0.112 µg/mL (≈ 0.28 µM) | IC50 [18]: 0.038 µg/mL (≈ 0.0949 µM) | IC50 [19]: 0.107 µg/mL (≈ 0.267 µM) | IC50 [20]: 0.507 µg/mL (≈ 1.27 µM) | IC50 [21]: 0.104 µg/mL (≈ 0.26 µM) | IC50 [22]: 0.521 µg/mL (≈ 1.3 µM) | IC50 [23]: 0.237 µg/mL (≈ 0.592 µM) | IC50 [24]: 0.068 µg/mL (≈ 0.17 µM)
Compound: C[C@@H]1CC(=O)[C@@H](O)[C@]2(O1)O[C@@H]1CC(=O)O[C@@H]1C1=C2C(=O)c2c(O)cccc2C1=O [Compound B, 4'-dehydro-deacetylgriseusin A]
IC70 ([1]; Breast): 0.160 µg/mL (≈ 0.4 µM) | IC70 [2]: 0.086 µg/mL (≈ 0.215 µM) | IC70 [3]: 0.208 µg/mL (≈ 0.52 µM) | IC70 [4]: 0.916 µg/mL (≈ 2.29 µM) | IC70 [5]: 0.177 µg/mL (≈ 0.442 µM) | IC70 [6]: 0.210 µg/mL (≈ 0.525 µM) | IC70 [7]: 0.175 µg/mL (≈ 0.437 µM) | IC70 [8]: 0.175 µg/mL (≈ 0.437 µM) | IC70 ([9]; Kidney): 0.142 µg/mL (≈ 0.355 µM) | IC70 ([10]; Uterus): 0.524 µg/mL (≈ 1.31 µM) | IC70 [11]: 0.127 µg/mL (≈ 0.317 µM) | IC70 [12]: 0.200 µg/mL (≈ 0.5 µM) | IC70 [13]: 1.333 µg/mL (≈ 3.33 µM) | IC70 ([14]; Stomach, GXF 251 L cell line): 0.178 µg/mL (≈ 0.445 µM) | IC70 [15]: 14.801 µg/mL (≈ 37 µM) | IC70 [16]: 2.249 µg/mL (≈ 5.62 µM) | IC70 [17]: 0.212 µg/mL (≈ 0.53 µM) | IC70 [18]: 0.107 µg/mL (≈ 0.267 µM) | IC70 [19]: 0.184 µg/mL (≈ 0.46 µM) | IC70 [20]: 1.137 µg/mL (≈ 2.84 µM) | IC70 [21]: 0.164 µg/mL (≈ 0.41 µM) | IC70 [22]: 1.309 µg/mL (≈ 3.27 µM) | IC70 [23]: 0.716 µg/mL (≈ 1.79 µM) | IC70 [24]: 0.136 µg/mL (≈ 0.34 µM)
